Results from PMC6199744, “Development of Chemical Proteomics for the Folateome and Analysis of the Kinetoplastid Folateome” (ACS Infectious Diseases, 2018).
Like-named read-outs stand apart in the source and are kept apart here.

Key:
Assay type in all cases: binding
[1] = target: T1, HeLa cell extract proteins (Homo sapiens, UniProt P52292)
T1 construct: endogenous in cells; host or cells: HeLa cell extract

[2] = target: T2, HeLa cell extract proteins (Homo sapiens, UniProt P52294)
T2 construct: endogenous in cells; host or cells: HeLa cell extract
T2 sequence (P52294 whole entry): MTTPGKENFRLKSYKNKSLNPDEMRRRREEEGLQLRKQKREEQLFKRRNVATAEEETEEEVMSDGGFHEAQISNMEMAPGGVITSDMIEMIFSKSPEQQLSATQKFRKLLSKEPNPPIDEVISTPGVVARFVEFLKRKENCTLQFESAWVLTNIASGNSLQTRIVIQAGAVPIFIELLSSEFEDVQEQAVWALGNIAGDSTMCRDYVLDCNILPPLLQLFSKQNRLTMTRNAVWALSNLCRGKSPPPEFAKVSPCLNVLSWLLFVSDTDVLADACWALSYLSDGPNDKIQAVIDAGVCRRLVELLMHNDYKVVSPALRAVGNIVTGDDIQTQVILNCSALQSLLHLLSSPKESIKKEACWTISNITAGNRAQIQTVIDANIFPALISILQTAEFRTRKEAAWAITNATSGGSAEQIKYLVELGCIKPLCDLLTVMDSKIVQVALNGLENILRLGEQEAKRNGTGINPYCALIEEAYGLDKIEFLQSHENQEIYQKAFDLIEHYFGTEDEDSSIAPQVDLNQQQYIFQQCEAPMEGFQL

[3] = target: T3, HeLa cell extract proteins (Homo sapiens, UniProt Q9BW92)
T3 construct: endogenous in cells; host or cells: HeLa cell extract
T3 sequence (Q9BW92 1-718): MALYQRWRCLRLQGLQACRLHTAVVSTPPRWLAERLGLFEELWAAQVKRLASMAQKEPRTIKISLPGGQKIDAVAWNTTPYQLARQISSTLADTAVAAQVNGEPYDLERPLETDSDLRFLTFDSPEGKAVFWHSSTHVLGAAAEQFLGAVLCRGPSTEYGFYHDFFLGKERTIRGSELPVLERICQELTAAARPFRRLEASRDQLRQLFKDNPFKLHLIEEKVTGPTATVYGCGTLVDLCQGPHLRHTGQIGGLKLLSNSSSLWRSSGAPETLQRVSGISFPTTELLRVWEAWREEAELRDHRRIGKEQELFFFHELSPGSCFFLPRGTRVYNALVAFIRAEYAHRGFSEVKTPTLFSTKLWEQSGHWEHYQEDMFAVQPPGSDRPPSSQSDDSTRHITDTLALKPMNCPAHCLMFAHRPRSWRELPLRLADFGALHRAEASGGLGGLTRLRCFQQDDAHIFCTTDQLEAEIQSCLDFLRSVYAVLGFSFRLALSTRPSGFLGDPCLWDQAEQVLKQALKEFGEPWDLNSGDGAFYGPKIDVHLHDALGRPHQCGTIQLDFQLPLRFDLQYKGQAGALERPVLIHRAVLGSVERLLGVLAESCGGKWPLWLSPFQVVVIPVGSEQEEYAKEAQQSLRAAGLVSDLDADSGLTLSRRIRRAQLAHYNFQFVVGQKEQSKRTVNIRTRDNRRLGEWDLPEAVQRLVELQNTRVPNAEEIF

[4] = target: T4, HeLa cell extract proteins (Homo sapiens, UniProt Q9H9T3)
T4 construct: endogenous in cells; host or cells: HeLa cell extract
T4 sequence (Q9H9T3 1-547): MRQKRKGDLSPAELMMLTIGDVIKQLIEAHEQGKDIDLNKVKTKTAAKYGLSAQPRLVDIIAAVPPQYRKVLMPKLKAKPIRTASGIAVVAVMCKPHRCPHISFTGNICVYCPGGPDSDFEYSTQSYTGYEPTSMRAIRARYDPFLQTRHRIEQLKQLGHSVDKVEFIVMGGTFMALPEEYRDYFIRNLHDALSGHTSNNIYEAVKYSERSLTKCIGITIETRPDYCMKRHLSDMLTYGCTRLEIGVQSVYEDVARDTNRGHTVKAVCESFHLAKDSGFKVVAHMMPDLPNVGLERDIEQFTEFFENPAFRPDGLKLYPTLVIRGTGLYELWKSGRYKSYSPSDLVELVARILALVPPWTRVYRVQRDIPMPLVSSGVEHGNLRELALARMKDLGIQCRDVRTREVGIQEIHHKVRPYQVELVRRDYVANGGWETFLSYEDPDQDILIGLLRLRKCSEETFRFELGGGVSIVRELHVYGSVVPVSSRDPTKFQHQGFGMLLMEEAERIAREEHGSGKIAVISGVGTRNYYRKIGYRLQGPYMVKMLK

[5] = target: T5, HeLa cell extract proteins (Homo sapiens, UniProt Q9NYP7)
T5 construct: endogenous in cells; host or cells: HeLa cell extract
T5 sequence (Q9NYP7 1-299): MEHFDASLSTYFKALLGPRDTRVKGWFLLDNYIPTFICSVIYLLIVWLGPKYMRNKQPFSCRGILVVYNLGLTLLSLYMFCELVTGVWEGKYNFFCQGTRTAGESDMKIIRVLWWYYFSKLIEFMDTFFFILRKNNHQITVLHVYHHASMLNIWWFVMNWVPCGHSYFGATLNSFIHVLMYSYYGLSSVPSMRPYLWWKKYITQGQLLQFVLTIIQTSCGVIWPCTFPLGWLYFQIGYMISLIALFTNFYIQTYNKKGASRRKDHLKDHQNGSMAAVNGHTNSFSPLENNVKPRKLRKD

[6] = target: T6, HeLa cell extract proteins (Homo sapiens, UniProt A0FGR8); conditions: HeLa; protein FAM62B
T6 construct: endogenous in cells; host or cells: HeLa cell extract
T6 sequence (A0FGR8 1-921): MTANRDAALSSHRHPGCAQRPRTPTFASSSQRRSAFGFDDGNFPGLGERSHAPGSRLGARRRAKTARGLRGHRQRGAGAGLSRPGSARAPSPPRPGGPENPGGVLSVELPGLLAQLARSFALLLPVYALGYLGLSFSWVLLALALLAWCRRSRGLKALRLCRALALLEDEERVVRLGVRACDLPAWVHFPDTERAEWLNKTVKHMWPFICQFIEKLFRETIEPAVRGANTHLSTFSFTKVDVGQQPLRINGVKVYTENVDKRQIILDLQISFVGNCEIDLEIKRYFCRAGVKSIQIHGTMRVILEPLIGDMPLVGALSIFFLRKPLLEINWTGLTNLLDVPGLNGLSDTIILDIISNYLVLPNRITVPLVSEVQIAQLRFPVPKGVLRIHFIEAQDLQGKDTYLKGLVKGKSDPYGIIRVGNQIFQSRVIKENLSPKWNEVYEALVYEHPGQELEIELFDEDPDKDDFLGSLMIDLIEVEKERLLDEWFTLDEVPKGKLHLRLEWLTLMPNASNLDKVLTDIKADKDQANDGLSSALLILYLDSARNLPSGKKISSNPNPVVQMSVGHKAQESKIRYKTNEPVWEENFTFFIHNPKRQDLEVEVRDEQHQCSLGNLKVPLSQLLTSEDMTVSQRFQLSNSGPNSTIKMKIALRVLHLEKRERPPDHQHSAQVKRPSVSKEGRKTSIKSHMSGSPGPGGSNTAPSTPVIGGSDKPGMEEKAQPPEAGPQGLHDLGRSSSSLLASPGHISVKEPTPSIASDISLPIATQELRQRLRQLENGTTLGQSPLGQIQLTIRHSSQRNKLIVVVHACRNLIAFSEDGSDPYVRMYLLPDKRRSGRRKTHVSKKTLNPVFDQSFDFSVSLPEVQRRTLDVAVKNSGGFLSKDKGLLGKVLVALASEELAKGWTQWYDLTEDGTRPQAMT

Q: `Nc1nc2c(c(=O)[nH]1)N(C=O)C(CNc1ccc(C(=O)N[C@@H](CCC(=O)O)C(=O)O)cc1)CN2` (some centres unmarked) [LEU, leucovorin] was tested. Which “fold changes relative to vehicle control” value ([1]; HeLa, captured protein KPNA2) did it give?
A: The value was 1.01.

Q: What about the “fold changes relative to vehicle control” value ([2]; HeLa, protein KPNA1) of the same compound?
A: The value was 0.9.

Q: And the “fold changes relative to vehicle control” value ([3]; HeLa, protein TARS2)?
A: The value was 0.91.

Q: And the “fold changes relative to vehicle control” value ([4]; protein ELP3, HeLa)?
A: Its value is 0.88.

Q: What about the “fold changes relative to vehicle control” value ([5]; HeLa, protein ELOVL5) of the same compound?
A: The value was 0.95.

Q: For `Nc1nc2[nH]cc(CCc3ccc(C(=O)N[C@@H](CCC(=O)O)C(=O)O)cc3)c2c(=O)[nH]1` [PTX, pemetrexed], which “fold changes relative to vehicle control” value [1] is on record?
A: The value was 1.

Q: What about the “fold changes relative to vehicle control” value [2] of the same compound?
A: The value was 0.87.

Q: What about the “fold changes relative to vehicle control” value [3] of the same compound?
A: Its value is 0.87.

Q: And the “fold changes relative to vehicle control” value [4]?
A: Its value is 0.72.

Q: What about the “fold changes relative to vehicle control” value [5] of the same compound?
A: Its value is 0.9.

Q: With `CCCCCCOc1ccc(Cc2cnc(N)nc2N)cc1` [compound 1] as the compound, how does the “fold changes relative to vehicle control” value [6] read?
A: Its value is 0.82.

Q: `CCCCCCOc1cccc(Cc2cnc(N)nc2N)c1` [compound 2] was tested. Which “fold changes relative to vehicle control” value [6] did it give?
A: Its value is 1.29.

Q: For `Nc1nc2cccc(-c3ccccc3)c2n1Cc1ccc(Cl)c(Cl)c1` [compound 3], which “fold changes relative to vehicle control” value [6] is on record?
A: The value was 0.96.

Q: Which “fold changes relative to vehicle control” value ([1]; HeLa, captured protein KPNA2) does the source give for `NCCOCCOCC(=O)Nc1nc2ncc(CNc3ccc(C(=O)NC(CCC(=O)O)C(=O)O)cc3)nc2c(=O)[nH]1` (centres unmarked) [compound 6] here?
A: The value was 1.13.

Q: And the “fold changes relative to vehicle control” value ([2]; HeLa, protein KPNA1)?
A: The value was 0.98.

Q: And the “fold changes relative to vehicle control” value ([3]; HeLa, protein TARS2)?
A: Its value is 1.13.

Q: What about the “fold changes relative to vehicle control” value ([4]; protein ELP3, HeLa) of the same compound?
A: Its value is 0.91.

Q: What about the “fold changes relative to vehicle control” value ([5]; HeLa, protein ELOVL5) of the same compound?
A: The value was 0.98.

Q: What does the source list for `NCCCNc1ccc(C(=O)NC(CCC(=O)O)C(=O)O)cc1` (centres unmarked) [compound 7]?
A: fold changes relative to vehicle control ([1]; HeLa, captured protein KPNA2): 0.99; fold changes relative to vehicle control ([2]; HeLa, protein KPNA1): 0.93; fold changes relative to vehicle control ([3]; HeLa, protein TARS2): 1; fold changes relative to vehicle control ([4]; protein ELP3, HeLa): 0.9; fold changes relative to vehicle control ([5]; HeLa, protein ELOVL5): 1.02
